± gives the expanded uncertainty stated by the source.
Tests used:
[1] = 298.15 K, 101.3 kPa, Crystal
[2] = molar heat capacity at constant pressure; conditions: 101.33 kPa, Crystal, DSC

[O-2].[O-2].[U+4] [uranium dioxide]
Conditions | mass density [kg/m3] | molar heat capacity at constant pressure [J/K/mol]
[1], From pellet mass and volume | 10570 ± 2100 | –
[1], X-ray diffraction | 10970 ± 40 | –
[1], buoyancy | 10660 ± 2100 | –
[2], 300 K | – | 64.6 ± 7
[2], 310 K | – | 66.2 ± 7.6
[2], 320 K | – | 66.8 ± 7.4
[2], 330 K | – | 67.7 ± 7.6
[2], 340 K | – | 68.7 ± 7.6
[2], 350 K | – | 69.1 ± 6.9
[2], 360 K | – | 69.5 ± 7.8
[2], 370 K | – | 70.5 ± 8
[2], 380 K | – | 71.2 ± 7.8
[2], 390 K | – | 71.2 ± 7.1
[2], 400 K | – | 72.5 ± 8
[2], 410 K | – | 72.8 ± 8.4
[2], 420 K | – | 73.4 ± 7.3
[2], 430 K | – | 73.5 ± 7.5
[2], 440 K | – | 74.4 ± 6.4
[2], 450 K | – | 74.6 ± 6.6
[2], 460 K | – | 74.9 ± 6.9
[2], 470 K | – | 75.5 ± 8.8
[2], 480 K | – | 76.2 ± 7.3
[2], 490 K | – | 76.4 ± 5.5
[2], 500 K | – | 76.5 ± 7.5
[2], 510 K | – | 76.6 ± 5.5
[2], 520 K | – | 76.7 ± 7
[2], 530 K | – | 77.1 ± 5.5
[2], 540 K | – | 77 ± 5.7
[2], 550 K | – | 77.1 ± 5.9
[2], 560 K | – | 77.3 ± 7.1
[2], 570 K | – | 77.9 ± 7.7
[2], 580 K | – | 78.2 ± 7.5
[2], 590 K | – | 79 ± 6.3
[2], 600 K | – | 79.1 ± 9.2
[2], 610 K | – | 79.7 ± 3.7
[2], 620 K | – | 79.4 ± 3.3
[2], 630 K | – | 79.6 ± 7.9
[2], 640 K | – | 80.3 ± 4.1
[2], 650 K | – | 79.8 ± 4.3
[2], 660 K | – | 80.5 ± 6.5
[2], 670 K | – | 80.5 ± 4.3
[2], 680 K | – | 80.7 ± 5.9
[2], 690 K | – | 81.1 ± 3.3
[2], 700 K | – | 80.4 ± 3.4
[2], 710 K | – | 80.8 ± 4.4
[2], 720 K | – | 81.2 ± 3.5
[2], 730 K | – | 81.7 ± 4.5
[2], 740 K | – | 82.2 ± 4.6
[2], 750 K | – | 82.9 ± 3.4
[2], 760 K | – | 82.4 ± 4.6
[2], 770 K | – | 82.7 ± 4.6
[2], 780 K | – | 83.4 ± 4.5
[2], 790 K | – | 83.9 ± 4.5
[2], 800 K | – | 83.7 ± 4.2
[2], 810 K | – | 84.1 ± 4.2
[2], 820 K | – | 83.8 ± 4.8
[2], 830 K | – | 84.2 ± 4.8
[2], 840 K | – | 84.1 ± 4.8
[2], 850 K | – | 83.7 ± 3.5
[2], 860 K | – | 84.1 ± 4.4
[2], 870 K | – | 84.5 ± 4.4

— the NIST ThermoML archive (doi:10.1016/j.tca.2017.04.014)
